One test has as its target T1, human DP2 receptor (Homo sapiens, UniProt Q9Y5Y4).
T1 construct: expressed in transfected cells
T1 sequence (Q9Y5Y4 1-395): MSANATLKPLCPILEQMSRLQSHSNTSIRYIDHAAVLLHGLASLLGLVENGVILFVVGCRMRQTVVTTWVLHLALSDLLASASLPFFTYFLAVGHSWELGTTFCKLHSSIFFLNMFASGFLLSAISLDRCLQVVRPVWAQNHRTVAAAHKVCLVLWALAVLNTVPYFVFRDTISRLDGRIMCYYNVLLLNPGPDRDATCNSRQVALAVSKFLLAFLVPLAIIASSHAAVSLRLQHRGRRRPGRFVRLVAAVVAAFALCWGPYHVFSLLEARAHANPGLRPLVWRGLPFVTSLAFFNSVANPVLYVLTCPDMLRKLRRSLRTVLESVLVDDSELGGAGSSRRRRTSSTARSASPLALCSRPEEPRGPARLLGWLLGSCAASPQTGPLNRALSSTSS
Put plainly: DP2/CRTH2 binding assay ([3H]PGD2 radioligand). Particulars: membranes of HEK293 cells expressing recombinant human DP2, 1 nM [3H]PGD2; read-out: hDP2. The method, then:
The ability of a compound to bind to the human DP2 receptor is assessed via a radioligand binding assay using [^3H]PGD2. HEK293 cells stably expressing recombinant human DP2 are resuspended in 10 mM Hepes, 7.4 containing 1 mM DTT, lysed and centrifuged at 75,000×g to pellet the membranes. The membranes are resuspended in 10 mM Hepes, 7.4 containing 1 mM DTT and 10% glycerol to approximately 5 mg protein/ml. Membranes (2-10 μg protein/well) are incubated in 96-well plates with 1 nM [^3H]PGD2 and test compound in Assay Buffer (50 mM Hepes, 10 mM MnCl2, 1 mM EDTA, plus or minus 0.2% human serum albumin, pH 7.4) for 60 minutes at room temperature. The reactions are terminated by rapid filtration through Whatman GF/C glass fibre filter plates. The filter plates were pre-soaked in 0.33% polythylenimine for 30 minutes at room temperature then washed in Wash Buffer (50 mM Hepes, 0.5 M NaCl pH 7.4) prior to harvesting. After harvesting, the filter plates are washed 3 times with 1 ml cold Wash Buffer then dried. Scintillant is then added to the plates and the radioactivity retained on the filters is determined on a Packard TopCount (Perkin Elmer). Specific binding is determined as total radioactive binding minus non-specific binding in the presence of 10 μM PGD2. IC50s were determined using GraphPad prism analysis of drug titration curves.

Another test deals with T2, human DP1 receptor (Homo sapiens, UniProt Q13258).
T2 construct: tissue Biological Specialty Corporation; host or cells: human platelets, membrane preparation
T2 sequence (Q13258 1-359): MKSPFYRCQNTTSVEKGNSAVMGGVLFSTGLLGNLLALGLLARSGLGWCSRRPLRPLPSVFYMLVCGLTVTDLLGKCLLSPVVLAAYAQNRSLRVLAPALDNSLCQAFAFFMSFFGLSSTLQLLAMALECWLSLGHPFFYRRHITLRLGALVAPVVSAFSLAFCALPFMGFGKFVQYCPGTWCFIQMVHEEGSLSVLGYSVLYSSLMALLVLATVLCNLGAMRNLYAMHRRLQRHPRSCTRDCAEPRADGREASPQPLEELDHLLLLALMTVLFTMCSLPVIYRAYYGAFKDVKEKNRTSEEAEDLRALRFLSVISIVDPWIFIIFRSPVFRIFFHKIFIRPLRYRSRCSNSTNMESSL
Put plainly: DP1 binding assay ([3H]BWA868C radioligand). The settings on record: human platelet membranes, 2 nM [3H]BWA868C; read-out: hDP1. The method, then:
The ability of a compound to bind to the human DP1 receptor was evaluated via a radioligand membrane binding assay using the DP1 selective synthetic ligand [^3H]BWA868C. Packed human platelets (Biological Specialty Corporation), were resuspended in 6 volumes of Hepes/HBSS buffer (10 mM Hepes, 1 mM DTT in Hanks Balanced Salt Solution (HBSS), lysed and centrifuged at 75,000×g to pellet the membranes. Membranes were resuspended in Hepes/HBSS buffer to approximately 12 mg protein/ml. Membranes (20 μg protein/well) are incubated in 96-well plates with 2 nM [^3H]BWA868C and test compound in Assay Buffer (50 mM Hepes, 10 mM MnCl2, 1 mM EDTA, plus or minus 0.2% human serum albumin, pH 7.4) for 60 minutes at room temperature. The reactions are terminated by rapid filtration through Whatman GF/C glass fibre filter plates. The filter plates were pre-soaked in 0.33% polethylenimine for 30 minutes at room temperature then washed in Wash Buffer (50 mM Hepes, 0.5 M NaCl pH 7.4) prior to harvesting. After harvesting, the filter plates are washed 3 times with 1 ml cold Wash Buffer then dried. Scintillant is then added to the plates and the radioactivity retained on the filters is determined on a Packard TopCount (Perkin Elmer). Specific binding is determined as total radioactive binding minus non-specific binding in the presence of 10 μM BW A868C. IC50s were determined using GraphPad prism analysis of drug titration curves.

Take `COc1ccc(CC(=O)O)cc1Oc1ccc(NC(=O)c2ccccc2)cc1CSC(C)(C)C` [Compound 58, [3-(4-benzoylamino-2-tert-butylsulfanylmethyl-phenoxy)-4-methoxy-phenyl]-acetic acid]: the IC50 on human DP2 receptor and at human DP1 receptor was below 300 nM throughout.

With `COc1ccc(CC(=O)O)cc1Oc1ccc(NC(=O)c2cc(Cl)cc(Cl)c2)cc1CSC(C)(C)C` [Compound 66, {3-[2-tert-Butylsulfanylmethyl-4-(3,5-dichloro-benzoylamino)-phenoxy]-4-methoxy-phenyl}-acetic acid], the IC50 on human DP2 receptor and on human DP1 receptor was below 300 nM in each case.

`COc1ccc(CC(=O)O)cc1Oc1ccc(NC(=O)C(C)(C)C)cc1C[S+]([O-])C(C)(C)C` (stereo not shown) [Compound 73, {3-[4-(2,2-Dimethyl-propionylamino)-2-(2-methyl-propane-2-sulfinylmethyl)-phenoxy]-4-methoxy-phenyl}-acetic acid]: the IC50 at human DP2 receptor and on human DP1 receptor was below 300 nM in each case.

`CC(C)SCc1cc(NC(=O)C(C)(C)C)ccc1Oc1cc(Cl)cc(CC(=O)O)c1` [Compound 30, {3-Chloro-5-[4-(2,2-dimethyl-propionylamino)-2-isopropylsulfanylmethyl-phenoxy]-phenyl}-acetic acid]: the IC50 on human DP2 receptor is below 300 nM; on human DP1 receptor, above 1000 nM.

Turning to `COc1ccc(CC(=O)O)cc1Oc1ccc(NC(=O)c2ccc(Cl)cc2)cc1CSCc1ccccc1` [Compound 18, {3-[2-Benzylsulfanylmethyl-4-(4-chloro-benzoylamino)-phenoxy]-4-methoxy-phenyl}-acetic acid], the IC50 at human DP2 receptor and on human DP1 receptor was below 300 nM each time.

As to `COc1ccc(CC(=O)O[C@@H]2O[C@@H](C(=O)O)[C@H](O)[C@@H](O)[C@@H]2O)cc1Oc1ccc(NC(=O)C(C)(C)C)cc1CSC(C)(C)C` [Compound 77, (2R,3R,4R,5S,6S)-6-(2-{3-[2-tert-Butylsulfanylmethyl-4-(2,2-dimethyl-propionylamino)-phenoxy]-4-methoxy-phenyl}-acetoxy)-3,4,5-trihydroxy-tetrahydro-pyran-2-carboxylic acid], the IC50 at human DP2 receptor and on human DP1 receptor was below 300 nM throughout.

As to `COc1ccc(CC(=O)O)cc1Oc1ccc(NC(=O)c2cc(F)cc(F)c2)cc1CSC(C)(C)C` [Compound 67, {3-[2-tert-Butylsulfanylmethyl-4-(3,5-difluoro-benzoylamino)-phenoxy]-4-methoxy-phenyl}-acetic acid], the IC50 at human DP2 receptor and on human DP1 receptor was below 300 nM throughout.

On to `COc1ccc(CC(=O)O)cc1Oc1ccc(NC(=O)c2cccc(C(F)(F)F)c2)cc1CSCC(F)(F)F` [Compound 68, {4-methoxy-3-[2-(2,2,2-trifluoro-ethylsulfanylmethyl)-4-(3-trifluoromethyl-benzoylamino)-phenoxy]-phenyl}-acetic acid], for which the IC50 on human DP2 receptor and on human DP1 receptor was below 300 nM in each case.

As to `COc1ccc(CC(=O)O)cc1Oc1ccc(NC(=O)c2ccncc2)cc1CSCC(F)(F)F` [Compound 71, {4-methoxy-3-[4-[(pyridine-4-carbonyl)-amino]-2-(2,2,2-trifluoro-ethylsulfanylmethyl)-phenoxy]-phenyl}-acetic acid], the IC50 at human DP2 receptor was below 300 nM; at human DP1 receptor it was 300 to 1000 nM.

Turning to `CC(C)(C)SCc1cc(NC(=O)C(C)(C)C)ccc1Oc1cc(CC(=O)O)ccc1Cl` [Compound 59, {3-[2-tert-Butylsulfanylmethyl-4-(2,2-dimethyl-propionylamino)-phenoxy]-4-chloro-phenyl}-acetic acid], the IC50 at human DP2 receptor and on human DP1 receptor was below 300 nM in each case.

As to `COc1ccc(CC(=O)O)cc1Oc1ccc(N2CCNC2=O)cc1CSCC(F)(F)F` [Compound 57, {4-Methoxy-3-[4-(2-oxo-imidazolidin-1-yl)-2-(2,2,2-trifluoro-ethylsulfanylmethyl)-phenoxy]-phenyl}-acetic acid], the IC50 was 300 to 1000 nM at human DP2 receptor and above 1000 nM on human DP1 receptor.

`COc1ccc(CC(=O)O)cc1Oc1ccc(NC(=O)C(C)(C)C)cc1CSCC(F)(F)F` [Compound 2, {3-[4-(2,2-dimethyl-propionylamino)-2-(2,2,2-trifluoro-ethylsulfanylmethyl)-phenoxy]-4-methoxy-phenyl}-acetic acid]: the IC50 on human DP2 receptor was below 300 nM; on human DP1 receptor it was above 1000 nM.

Consider `CC(C)(C)C(=O)Nc1ccc(Oc2cc(CC(=O)O)ccc2O)c(C[S+]([O-])C(C)(C)C)c1` (stereo not shown) [Compound 76, {3-[4-(2,2-Dimethyl-propionylamino)-2-(2-methyl-propane-2-sulfinylmethyl)-phenoxy]-4-hydroxy-phenyl}-acetic acid], for which the IC50 at human DP2 receptor and on human DP1 receptor was below 300 nM throughout.

For the compound `CC(C)C(=O)Nc1ccc(Oc2cc(CC(=O)O)ccc2Cl)c(CSC(C)(C)C)c1` [Compound 61, [3-(2-tert-Butylsulfanylmethyl-4-isobutyrylamino-phenoxy)-4-chloro-phenyl]-acetic acid], the IC50 on human DP2 receptor and on human DP1 receptor was below 300 nM throughout.

In the case of `COc1ccc(CC(=O)O)cc1Oc1ccc(NC(=O)c2ccc(F)cc2)cc1CSC(C)(C)C` [Compound 63, {3-[2-tert-Butylsulfanylmethyl-4-(4-fluoro-benzoylamino)-phenoxy]-4-methoxy-phenyl}-acetic acid], the IC50 at human DP2 receptor and on human DP1 receptor was below 300 nM throughout.

On to `COc1ccc(CC(=O)O)cc1Oc1ccc(NC(=O)c2cccc(F)c2)cc1CSC(C)(C)C` [Compound 62, {3-[2-tert-Butylsulfanylmethyl-4-(3-fluoro-benzoylamino)-phenoxy]-4-methoxy-phenyl}-acetic acid], for which the IC50 at human DP2 receptor and on human DP1 receptor was below 300 nM throughout.

As for `O=C(O)CCn1c2c(c3ccccc31)C[C@H](NS(=O)(=O)c1ccc(F)cc1)CC2` [Ramatroban, reference compound], the results for the IC50 on human DP2 receptor and on human DP1 receptor were 300 to 1000 nM and above 1000 nM, respectively.

For `CC(C)(C)C(=O)Nc1ccc(Oc2cc(CC(=O)O)cc(C(F)(F)F)c2)c(CSCC(F)(F)F)c1` [Compound 32, {3-[4-(2,2-Dimethyl-propionylamino)-2-(2,2,2-trifluoro-ethylsulfanylmethyl)-phenoxy]-5-trifluoromethyl-phenyl}-acetic acid], the values for the IC50 at human DP2 receptor and on human DP1 receptor were below 300 nM and above 1000 nM, respectively.

Take `COc1ccc(CC(=O)O)cc1Oc1ccc(NC(=O)c2ccc(C(F)(F)F)cc2)cc1CSCC(F)(F)F` [Compound 69, {4-methoxy-3-[2-(2,2,2-trifluoro-ethylsulfanylmethyl)-4-(4-trifluoromethyl-benzoylamino)-phenoxy]-phenyl}-acetic acid]: the IC50 on human DP2 receptor and on human DP1 receptor was below 300 nM each time.

As for `CC(C)(C)SCc1cc(NC(=O)c2ccc(Cl)cc2)ccc1Oc1cc(CC(=O)O)ccc1Cl` [Compound 60, {3-[2-tert-Butylsulfanylmethyl-4-(4-chloro-benzoylamino)-phenoxy]-4-chloro-phenyl}-acetic acid], the IC50 on human DP2 receptor and at human DP1 receptor was below 300 nM in each case.

Values taken from patent US20110144160A1, “Antagonists of Prostaglandin D2 Receptors” (Amira Pharmaceuticals, Inc., priority 2008, published 2011).
